Assay results published in patent US20100197797A1 (priority 2009, published 2010).

Columns and labels:
Format in all cases: in vivo, human
[1] = test system: fibromyalgia; assay: Study 1, 6-month fibromyalgia efficacy study
Text: Enrolled patients met the American College of Rheumatology (ACR) criteria for fibromyalgia (a history of widespread pain for 3 months and pain present at 11 or more of the 18 specific tender point sites). […] Study 1 was six months in duration and Study 2 was three months in duration.
Patients were enrolled with a minimum mean baseline pain score of ≧50 mm on a 100 mm visual analog scale (VAS) ranging from 0 (“no pain”) to 100 (“worst possible pain”). The mean baseline pain score in this trial was 69.

[2] = test system: humans; assay: Acute overdose in clinical trials; conditions: up to 1000 mg, alone or in combination with other drugs
Text: There is limited clinical experience with milnacipran hydrochloride overdose in humans.

[3] = Drug interaction studies in healthy adult subjects
Experimental: The drug interaction studies described below were conducted in healthy adult subjects.

[4] = test system: fibromyalgia patients; assay: Placebo-controlled trials in fibromyalgia patients (safety)
Text: The stated frequencies of adverse reactions represent the proportion of individuals who experienced, at least once, a treatment-emergent adverse reaction of the type listed. A reaction was considered treatment emergent if it occurred for the first time or worsened while receiving therapy following baseline evaluation.

CCN(CC)C(=O)C1(c2ccccc2)CC1CN.Cl (racemic) [milnacipran hydrochloride, (±)-[1R(S),2S(R)]-2-(aminomethyl)-N,N-diethyl-1-phenylcyclopropanecarboxamide hydrochloride]
patients with at least 30% reduction in pain from baseline (VAS) and globally improved (PGIC) vs placebo ([1]; 100 mg and 200 mg daily, 3-month time point): More patients | proportion meeting composite response criteria: pain (VAS), physical function (SF-36 PCS), patient global assessment (PGIC), vs placebo ([1]; Studies 1 and 2): larger proportion | proportion with simultaneous pain reduction of at least 30% (VAS) and PGIC much or very much improved, vs placebo ([1]; Studies 1 and 2): larger proportion | onset of decrease in pain ([1]; both studies, some patients globally much or very much improved, stable dose): as early as week 1 | benefit of 200 mg/day vs 100 mg/day ([1]; in vivo): did not confer greater benefit | outcome of acute ingestions [2]: none being fatal | pharmacokinetic interaction with digoxin ([3]; 200 mg/day and digoxin 0.2 mg/day Lanoxicaps, multiple-dose): no pharmacokinetic interaction | change in pharmacokinetics of carbamazepine or its epoxide metabolite ([3]; co-administration with milnacipran hydrochloride): No changes were observed | adverse events after switching from clomipramine ([3]; human, in vivo): an increase in euphoria and postural hypotension | hemodynamic adverse effects in combination with digoxin ([3]; intravenously administered digoxin (1 mg)): Postural hypotension and tachycardia have been reported | effect on pharmacokinetics of lithium ([3]; multiple doses, 100 mg/day): did not affect | pharmacokinetic interaction with lorazepam ([3]; single dose 50 mg and lorazepam 1.5 mg): no pharmacokinetic interaction | patients who discontinued prematurely due to adverse reactions ([4]; 100 mg/day): 23% | patients with increases in AST ([4]; 100 mg/day): 3% | patients with increases in pulse≧20 bpm ([4]; 100 mg/day): 8% | sustained increases in DBP (≧10 mmHg on 3 consecutive post-baseline visits) ([4]; 100 mg/day): 13% | sustained increases in SBP (≧15 mmHg on three consecutive post-baseline visits) ([4]; 100 mg/day): 9% | Adverse reaction incidence: Abdominal pain ([4]; 100 mg/day (n = 623)): 3% | Adverse reaction incidence: Anxiety ([4]; 100 mg/day (n = 623)): 5% | Adverse reaction incidence: Blood pressure increased ([4]; 100 mg/day (n = 623)): 3% | Adverse reaction incidence: Chest discomfort ([4]; 100 mg/day (n = 623)): 2% | Adverse reaction incidence: Chest pain ([4]; 100 mg/day (n = 623)): 3% | Adverse reaction incidence: Chills ([4]; 100 mg/day (n = 623)): 1% | Adverse reaction incidence: Constipation ([4]; 100 mg/day (n = 623)): 16% | Adverse reaction incidence: Decreased appetite ([4]; 100 mg/day (n = 623)): 1% | Adverse reaction incidence: Dizziness ([4]; 100 mg/day (n = 623)): 11% | Adverse reaction incidence: Dry mouth ([4]; 100 mg/day (n = 623)): 5% | Adverse reaction incidence: Dyspnea ([4]; 100 mg/day (n = 623)): 2% | Adverse reaction incidence: Flushing ([4]; 100 mg/day (n = 623)): 2% | Adverse reaction incidence: Headache ([4]; 100 mg/day (n = 623)): 19% | Adverse reaction incidence: Heart rate increased ([4]; 100 mg/day (n = 623)): 5% | Adverse reaction incidence: Hot flush ([4]; 100 mg/day (n = 623)): 11% | Adverse reaction incidence: Hyperhidrosis ([4]; 100 mg/day (n = 623)): 8% | Adverse reaction incidence: Hypertension ([4]; 100 mg/day (n = 623)): 7% | Adverse reaction incidence: Hypoesthesia ([4]; 100 mg/day (n = 623)): 1% | Adverse reaction incidence: Insomnia ([4]; 100 mg/day (n = 623)): 12% | Adverse reaction incidence: Migraine ([4]; 100 mg/day (n = 623)): 6% | Adverse reaction incidence: Nausea ([4]; 100 mg/day (n = 623)): 35% | Adverse reaction incidence: Palpitations ([4]; 100 mg/day (n = 623)): 8% | Adverse reaction incidence: Paresthesia ([4]; 100 mg/day (n = 623)): 2% | Adverse reaction incidence: Pruritus ([4]; 100 mg/day (n = 623)): 3% | Adverse reaction incidence: Rash ([4]; 100 mg/day (n = 623)): 3% | Adverse reaction incidence: Tachycardia ([4]; 100 mg/day (n = 623)): 3% | Adverse reaction incidence: Tension headache ([4]; 100 mg/day (n = 623)): 2% | Adverse reaction incidence: Tremor ([4]; 100 mg/day (n = 623)): 2% | Adverse reaction incidence: Upper respiratory tract infection ([4]; 100 mg/day (n = 623)): 7% | Adverse reaction incidence: Vision blurred ([4]; 100 mg/day (n = 623)): 1% | Adverse reaction incidence: Vomiting ([4]; 100 mg/day (n = 623)): 6% | patients with increase in ALT greater than 5 times (not exceeding 10 times) the upper limit of normal ([4]; 100 mg/day, one patient): 0.2% | patients who discontinued prematurely due to adverse reactions ([4]; 200 mg/day): 26% | patients with increases in AST ([4]; 200 mg/day): 5% | patients with increases in pulse≧20 bpm ([4]; 200 mg/day): 8% | sustained increases in DBP (≧10 mmHg on 3 consecutive post-baseline visits) ([4]; 200 mg/day): 10% | sustained increases in SBP (≧15 mmHg on three consecutive post-baseline visits) ([4]; 200 mg/day): 6% | Adverse reaction incidence: Abdominal pain ([4]; 200 mg/day (n = 934)): 3% | Adverse reaction incidence: Anxiety ([4]; 200 mg/day (n = 934)): 3% | Adverse reaction incidence: Blood pressure increased ([4]; 200 mg/day (n = 934)): 3% | Adverse reaction incidence: Chest discomfort ([4]; 200 mg/day (n = 934)): 1% | Adverse reaction incidence: Chest pain ([4]; 200 mg/day (n = 934)): 2% | Adverse reaction incidence: Chills ([4]; 200 mg/day (n = 934)): 2% | Adverse reaction incidence: Constipation ([4]; 200 mg/day (n = 934)): 15% | Adverse reaction incidence: Decreased appetite ([4]; 200 mg/day (n = 934)): 2% | Adverse reaction incidence: Dizziness ([4]; 200 mg/day (n = 934)): 10% | Adverse reaction incidence: Dry mouth ([4]; 200 mg/day (n = 934)): 5% | Adverse reaction incidence: Dyspnea ([4]; 200 mg/day (n = 934)): 2% | Adverse reaction incidence: Flushing ([4]; 200 mg/day (n = 934)): 3% | Adverse reaction incidence: Headache ([4]; 200 mg/day (n = 934)): 17% | Adverse reaction incidence: Heart rate increased ([4]; 200 mg/day (n = 934)): 6% | Adverse reaction incidence: Hot flush ([4]; 200 mg/day (n = 934)): 12% | Adverse reaction incidence: Hyperhidrosis ([4]; 200 mg/day (n = 934)): 9% | Adverse reaction incidence: Hypertension ([4]; 200 mg/day (n = 934)): 4% | Adverse reaction incidence: Hypoesthesia ([4]; 200 mg/day (n = 934)): 2%
